Measured values reported in patent US20120264231A1, “ASSAY FOR ORAI CALCIUM CHANNEL REGULATORS” (IMMUNE DISEASE INSTITUTE, INC., priority 2009, published 2012).

Assay: Fura-2 Ca^2+ flux assay, control vesicles
Assay type: biochemical, S cerevisiae
Settings: STIM 1 cytoplasmic fragments 2 μM
Method: It was next asked whether STIM-ORAI protein-protein interaction is sufficient to open the ORAI Ca^2+ channel. Vesicles obtained from S cerevisiae expressing ORAI were incubated under conditions where Fura-2 was the principal Ca^2+ buffer in the extravesicular solution in order to monitor Ca^2+ efflux (Meyer, T., et al., Biochemistry 29, 32-37 (1990)).
S cerevisiae strain NY17 featuring the temperature-sensitive sec6-4 mutation was used for protein expression and purification of secretory vesicles as described (Nakamoto, R. K., et al., J Biol Chem 266, 7940-7949 (1991); Coury, L. A., et al., Methods Enzymol 306, 169-186 (1999)). Cells were grown to midlog phase at 25° C. in uracil-deficient synthetic complete medium containing glucose, which was subsequently exchanged for galactose to induce transgene expression over a period of 8 hours. The temperature was then switched to 37° C. for 3 hours to force intracellular accumulation of secretory vesicles. […] Myc-tagged ORAI1 was detected in Western blots using the murine anti-Myc monoclonal antibody 9E10. […]
Fura-2 spectra were recorded at ambient temperature, 22-25° C., in 20 mM Tris pH 7.4, 100 mM KCl, containing 10 μM metal-free Fura-2. Excitation spectra were recorded by scanning from 300-450 nm while monitoring emission at 510 nm, using a 2-4 nm slitwidth for both excitation and emission. […]

Substance	Ca^2+ release from control vesicles (Fura-2)
STIM1 (233-498): truncated mouse STIM1 cytoplasmic fragment, residues 233-498, His-tagged recombinant protein	neither STIM 1 fragment was effective
STIM1^CT: cytoplasmic region of STIM1, mouse residues 233-685, His-tagged recombinant protein expressed in E coli	neither STIM 1 fragment was effective
